The target in this assay is T1, glucagon receptor (Homo sapiens, UniProt P47871).
T1 construct: expressed in transfected cells
The experiment in a line: Assay (I) Glucagon activity (cAMP biosensor, FLIPR). In kind it is cell-based. The settings on record: HEK-293 cells with cloned glucagon receptor and cAMP biosensor; end point after 6 minutes. On the procedure:
The glucagon receptor was cloned into HEK-293 cells having a membrane bound cAMP biosensor (ACTOne™). The cells (14000 per well) were incubated (37° C., 5% CO2) overnight in 384-well plates. Next day the cells were loaded with a calcium responsive dye that only distributed into the cytoplasm. Probenecid, an inhibitor of the organic anion transporter, was added to prevent the dye from leaving the cell. A PDE inhibitor was added to prevent formatted cAMP from being degraded, The plates were placed into a […] and the glucagon analogues were added. End point data were collected after 6 minutes. An increase in intracellular cAMP was proportional to an increased in calcium concentrations in the cytoplasm. When calcium was bound the dry a fluorescence signal was generated. EC50-values were calculated in Prism5.

pEC50: −log10 of the molar value. *1 amine or outer side, *2 acyl side, *3 side chain or, on linkers, in order; H or OH if unused. Where a SMILES comes first, the peptide text is derived from it. Side-chain parts run from the residue outwards. The star is where a group is joined. γGlu = O=C(O)[C@H](CCC(=O)[*:2])N[*:1]; Pentanoyl = CCCCC(=O)*

A word on the pEC50: it is the EC50 on a negative log10 scale, so that one unit is a factor of ten. A low value points to a high EC50.

T1 sequence (P47871 26-477): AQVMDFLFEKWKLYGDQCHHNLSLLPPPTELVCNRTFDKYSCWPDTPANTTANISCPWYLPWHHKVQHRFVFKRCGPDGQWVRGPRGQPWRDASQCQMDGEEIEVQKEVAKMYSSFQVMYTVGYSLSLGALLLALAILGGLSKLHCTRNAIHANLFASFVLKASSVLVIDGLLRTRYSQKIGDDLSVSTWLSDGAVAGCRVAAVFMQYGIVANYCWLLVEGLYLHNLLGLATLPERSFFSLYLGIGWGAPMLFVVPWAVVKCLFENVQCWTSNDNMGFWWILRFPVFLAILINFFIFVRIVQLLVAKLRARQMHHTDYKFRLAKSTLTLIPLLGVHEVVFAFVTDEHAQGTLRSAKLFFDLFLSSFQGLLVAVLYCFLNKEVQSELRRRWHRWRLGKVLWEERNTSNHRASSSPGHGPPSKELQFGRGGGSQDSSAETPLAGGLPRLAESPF

In the case of `CC(C)C[C@H](NC(=O)[C@H](Cc1c[nH]c2ccccc12)NC(=O)[C@H](CCCCNC(=O)CC[C@H](NC(=O)CC[C@H](NC(=O)CC[C@H](NC(=O)CC[C@H](N)C(=O)O)C(=O)O)C(=O)O)C(=O)O)NC(=O)[C@@H](NC(=O)[C@H](Cc1ccccc1)NC(=O)[C@H](CC(=O)O)NC(=O)[C@H](C)NC(=O)[C@H](C)NC(=O)[C@H](CCCNC(=N)N)NC(=O)[C@H](CCCNC(=N)N)NC(=O)[C@@H](NC(=O)[C@H](CC(=O)O)NC(=O)[C@H](CC(C)C)NC(=O)[C@H](Cc1ccc(O)cc1)NC(=O)[C@H](CCCCN)NC(=O)[C@H](CO)NC(=O)[C@H](Cc1ccc(O)cc1)NC(=O)[C@H](CC(=O)O)NC(=O)[C@H](CO)NC(=O)[C@@H](NC(=O)[C@H](Cc1ccccc1)NC(=O)[C@@H](NC(=O)CNC(=O)[C@H](Cc1c[nH]cn1)NC(=O)[C@H](CO)NC(=O)[C@@H](N)Cc1c[nH]cn1)[C@@H](C)O)[C@@H](C)O)[C@@H](C)O)C(C)C)C(=O)N[C@@H](CC(C)C)C(=O)N[C@@H](CO)C(=O)N[C@H](C(=O)O)[C@@H](C)O` [Example 7, N^ε24-[(4S)-4-[[(4S)-4-[[(4S)-4-[[(4S)-4-amino-4-carboxybutanoyl]amino]-4-carboxybutanoyl]amino]-4-carboxybutanoyl]amino]-4-carboxybutanoyl]-[His3,Thr16,Ala20,Lys24,Leu27,Ser28]-Glucagon] (H-HSHGTFTSDYSKYLDTRRAADFVK([γGlu-γGlu-γGlu-γGlu])WLLST-OH), the pEC50 is 10.61.

Compound `CC(=O)N[C@@H](CCC(=O)N[C@@H](CCC(=O)N[C@@H](CCC(=O)N[C@@H](CCC(=O)NCCCC[C@H](NC(=O)[C@@H](NC(=O)[C@H](Cc1ccccc1)NC(=O)[C@H](CCC(=O)O)NC(=O)[C@H](C)NC(=O)[C@H](C)NC(=O)[C@H](CCCNC(=N)N)NC(=O)[C@H](CCCNC(=N)N)NC(=O)[C@@H](NC(=O)[C@H](CC(=O)O)NC(=O)[C@H](CC(C)C)NC(=O)[C@H](Cc1ccc(O)cc1)NC(=O)[C@H](CCCCN)NC(=O)[C@H](CO)NC(=O)[C@@H](NC(=O)[C@H](CC(=O)O)NC(=O)[C@H](CO)NC(=O)[C@@H](NC(=O)[C@H](Cc1ccccc1)NC(=O)[C@@H](NC(=O)CNC(=O)[C@H](Cc1c[nH]cn1)NC(=O)CNC(=O)[C@@H](N)Cc1c[nH]cn1)[C@@H](C)O)[C@@H](C)O)C(C)C)C(C)C)C(C)C)C(=O)N[C@@H](Cc1c[nH]c2ccccc12)C(=O)N[C@@H](CC(C)C)C(=O)N[C@@H](CC(C)C)C(=O)N[C@@H](CO)C(=O)N[C@H](C(=O)O)[C@@H](C)O)C(=O)O)C(=O)O)C(=O)O)C(=O)O` [Example 50, N^ε24-[(4S)-4-[[(4S)-4-[[(4S)-4-[[(4S)-4-acetamido-4-carboxybutanoyl]amino]-4-carboxybutanoyl]amino]-4-carboxybutanoyl]amino]-4-carboxybutanoyl]-[Gly^2,His^3,Val^10,Val^16,Ala^20,Glu^21,Lys^24,Leu^27,Ser^28]-Glucagon] (H-HGHGTFTSDVSKYLDVRRAAEFVK([γGlu-γGlu-γGlu-γGlu-Ac])WLLST-OH) had a pEC50 of 9.82.

The compound `CC(=O)N[C@@H](CCC(=O)N[C@@H](CCC(=O)N[C@@H](CCC(=O)N[C@@H](CCC(=O)NCCCC[C@H](NC(=O)[C@@H](NC(=O)[C@H](Cc1ccccc1)NC(=O)[C@H](CC(=O)O)NC(=O)[C@H](CCC(N)=O)NC(=O)[C@H](C)NC(=O)[C@H](CCCNC(=N)N)NC(=O)[C@H](CCCNC(=N)N)NC(=O)[C@@H](NC(=O)[C@H](CCC(=O)O)NC(=O)[C@H](CC(C)C)NC(=O)[C@H](Cc1ccc(O)cc1)NC(=O)[C@H](CCCCN)NC(=O)[C@H](CO)NC(=O)[C@H](Cc1ccc(O)cc1)NC(=O)[C@H](CC(=O)O)NC(=O)[C@H](CO)NC(=O)[C@@H](NC(=O)[C@H](Cc1ccccc1)NC(=O)[C@@H](NC(=O)CNC(=O)[C@H](Cc1c[nH]cn1)NC(=O)[C@H](CO)NC(=O)[C@@H](N)Cc1c[nH]cn1)[C@@H](C)O)[C@@H](C)O)[C@@H](C)O)C(C)C)C(=O)N[C@@H](Cc1c[nH]c2ccccc12)C(=O)N[C@@H](CC(C)C)C(=O)N[C@@H](CC(C)C)C(=O)N[C@@H](CO)C(=O)N[C@H](C(=O)O)[C@@H](C)O)C(=O)O)C(=O)O)C(=O)O)C(=O)O` [Example 31, N^ε24-[(4S)-4-[[(4S)-4-[[(4S)-4-[[(4S)-4-acetamido-4-carboxybutanoyl]amino]-4-carboxybutanoyl]amino]-4-carboxybutanoyl]amino]-4-carboxybutanoyl]-[His3,Glu15,Thr16,Lys24,Leu27,Ser28]-Glucagon] (H-HSHGTFTSDYSKYLETRRAQDFVK([γGlu-γGlu-γGlu-γGlu-Ac])WLLST-OH) had a pEC50 of 10.89. Against the preceding compound, the pEC50 is 1.07 log units higher.

Compound `CC(C)C[C@H](NC(=O)[C@H](Cc1c[nH]c2ccccc12)NC(=O)[C@H](CCCCNC(=O)CC[C@H](NC(=O)CC[C@H](NC(=O)CC[C@H](NC(=O)CC[C@H](N)C(=O)O)C(=O)O)C(=O)O)C(=O)O)NC(=O)[C@@H](NC(=O)[C@H](Cc1ccccc1)NC(=O)[C@H](CC(=O)O)NC(=O)[C@H](CCC(N)=O)NC(=O)[C@H](C)NC(=O)[C@H](CCCNC(=N)N)NC(=O)[C@H](CCCNC(=N)N)NC(=O)[C@@H](NC(=O)[C@H](CC(=O)O)NC(=O)[C@H](CC(C)C)NC(=O)[C@H](Cc1ccc(O)cc1)NC(=O)[C@H](CCCCN)NC(=O)[C@H](CO)NC(=O)[C@H](Cc1ccc(O)cc1)NC(=O)[C@H](CC(=O)O)NC(=O)[C@H](CO)NC(=O)[C@@H](NC(=O)[C@H](Cc1ccccc1)NC(=O)[C@@H](NC(=O)CNC(=O)[C@H](Cc1c[nH]cn1)NC(=O)[C@H](CO)NC(=O)[C@@H](N)Cc1c[nH]cn1)[C@@H](C)O)[C@@H](C)O)[C@@H](C)O)C(C)C)C(=O)N[C@@H](CC(C)C)C(=O)N[C@@H](CO)C(=O)N[C@H](C(=O)O)[C@@H](C)O` [Example 33, N^ε24-[(4S)-4-[[(4S)-4-[[(4S)-4-[[(4S)-4-amino-4-carboxybutanoyl]amino]-4-carboxybutanoyl]amino]-4-carboxybutanoyl]amino]-4-carboxybutanoyl]-[His3,Thr16,Lys24,Leu27,Ser28]-Glucagon] (H-HSHGTFTSDYSKYLDTRRAQDFVK([γGlu-γGlu-γGlu-γGlu])WLLST-OH) had a pEC50 of 11.10.

On to `CCCCC(=O)N[C@@H](CCC(=O)N[C@@H](CCC(=O)N[C@@H](CCC(=O)N[C@@H](CCC(=O)NCCCC[C@H](NC(=O)[C@@H](NC(=O)[C@H](Cc1ccccc1)NC(=O)[C@H](CC(=O)O)NC(=O)[C@H](C)NC(=O)[C@H](C)NC(=O)[C@H](CCCNC(=N)N)NC(=O)[C@H](CCCNC(=N)N)NC(=O)[C@H](CC(C)C)NC(=O)[C@H](CC(=O)O)NC(=O)[C@H](CC(C)C)NC(=O)[C@H](Cc1ccc(O)cc1)NC(=O)[C@H](CCCNC(=N)N)NC(=O)[C@H](CO)NC(=O)[C@H](Cc1ccc(O)cc1)NC(=O)[C@H](CC(=O)O)NC(=O)[C@H](CO)NC(=O)[C@@H](NC(=O)[C@H](Cc1ccccc1)NC(=O)[C@@H](NC(=O)CNC(=O)[C@H](CCC(N)=O)NC(=O)[C@H](CO)NC(=O)[C@@H](N)Cc1c[nH]cn1)[C@@H](C)O)[C@@H](C)O)C(C)C)C(=O)N[C@@H](Cc1c[nH]c2ccccc12)C(=O)N[C@@H](CC(C)C)C(=O)N[C@@H](CC(C)C)C(=O)N[C@@H](CO)C(=O)N[C@H](C(=O)O)[C@@H](C)O)C(=O)O)C(=O)O)C(=O)O)C(=O)O` [Example 67] (H-HSQGTFTSDYSRYLDLRRAADFVK([γGlu-γGlu-γGlu-γGlu-Pentanoyl])WLLST-OH), for which the negative-log EC50 (pEC50) is 10.66. This pEC50 lies 0.44 log units lower than the previous one.

The compound `CC(=O)N[C@@H](CCC(=O)N[C@@H](CCC(=O)N[C@@H](CCC(=O)N[C@@H](CCC(=O)NCCCC[C@H](NC(=O)[C@@H](NC(=O)[C@H](Cc1ccccc1)NC(=O)[C@H](CC(=O)O)NC(=O)[C@H](C)NC(=O)[C@H](C)NC(=O)[C@H](CCCNC(=N)N)NC(=O)[C@H](CCCNC(=N)N)NC(=O)[C@@H](NC(=O)[C@H](CC(=O)O)NC(=O)[C@H](CC(C)C)NC(=O)[C@H](Cc1ccc(O)cc1)NC(=O)[C@H](CCCCN)NC(=O)[C@H](CO)NC(=O)[C@H](Cc1ccc(O)cc1)NC(=O)[C@H](CC(=O)O)NC(=O)[C@H](CO)NC(=O)[C@@H](NC(=O)[C@H](Cc1ccccc1)NC(=O)[C@@H](NC(=O)CNC(=O)[C@H](Cc1c[nH]cn1)NC(=O)[C@H](CO)NC(=O)[C@@H](N)Cc1c[nH]cn1)[C@@H](C)O)[C@@H](C)O)C(C)C)C(C)C)C(=O)N[C@@H](Cc1c[nH]c2ccccc12)C(=O)N[C@@H](CC(C)C)C(=O)N[C@@H](CC(C)C)C(=O)N[C@@H](CO)C(=O)N[C@H](C(=O)O)[C@@H](C)O)C(=O)O)C(=O)O)C(=O)O)C(=O)O` [Example 10, N^ε24-[(4S)-4-[[(4S)-4-[[(4S)-4-[[(4S)-4-acetamido-4-carboxybutanoyl]amino]-4-carboxybutanoyl]amino]-4-carboxybutanoyl]amino]-4-carboxybutanoyl]-[His3,Val16,Ala20,Lys24,Leu27,Ser28]-Glucagon] (H-HSHGTFTSDYSKYLDVRRAADFVK([γGlu-γGlu-γGlu-γGlu-Ac])WLLST-OH) gave a pEC50 of 10.78.

The values above are taken from US20140031278A1, “Novel Glucagon Analogues” (NOVO NORDISK A/S, priority 2011, published 2014).
